Reference: publication PMC9932091, “Two odorant receptors regulate 1-octen-3-ol induced oviposition behavior in the oriental fruit fly” (Communications Biology, 2023)

Target: T1, BdorOR13a/BdorOrco (Bactrocera dorsalis, UniProt A0A0G2UKH1)
T1 construct: gene OR13a; full-length 441-residue OR co-expressed with BdorOrco; pcDNA3.1(+) with mCherry reporter in HEK 293 cells (also pT7Ts in Xenopus oocytes); with Odorant receptor coreceptor
T1 sequence (A0A0G2UKH1 1-441): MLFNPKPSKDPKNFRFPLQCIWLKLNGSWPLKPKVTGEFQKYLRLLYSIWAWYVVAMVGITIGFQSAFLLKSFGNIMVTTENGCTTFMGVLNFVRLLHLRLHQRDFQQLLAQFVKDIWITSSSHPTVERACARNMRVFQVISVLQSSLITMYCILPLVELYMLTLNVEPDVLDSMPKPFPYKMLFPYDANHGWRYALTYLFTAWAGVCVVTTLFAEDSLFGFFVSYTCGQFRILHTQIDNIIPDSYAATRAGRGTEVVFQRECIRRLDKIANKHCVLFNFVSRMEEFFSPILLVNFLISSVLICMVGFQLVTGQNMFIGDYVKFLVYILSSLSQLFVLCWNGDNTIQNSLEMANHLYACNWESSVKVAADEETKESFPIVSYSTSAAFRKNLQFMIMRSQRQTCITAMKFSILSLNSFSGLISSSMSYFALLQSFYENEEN
T1 sequence (B2Z9Z0 1-473 partner): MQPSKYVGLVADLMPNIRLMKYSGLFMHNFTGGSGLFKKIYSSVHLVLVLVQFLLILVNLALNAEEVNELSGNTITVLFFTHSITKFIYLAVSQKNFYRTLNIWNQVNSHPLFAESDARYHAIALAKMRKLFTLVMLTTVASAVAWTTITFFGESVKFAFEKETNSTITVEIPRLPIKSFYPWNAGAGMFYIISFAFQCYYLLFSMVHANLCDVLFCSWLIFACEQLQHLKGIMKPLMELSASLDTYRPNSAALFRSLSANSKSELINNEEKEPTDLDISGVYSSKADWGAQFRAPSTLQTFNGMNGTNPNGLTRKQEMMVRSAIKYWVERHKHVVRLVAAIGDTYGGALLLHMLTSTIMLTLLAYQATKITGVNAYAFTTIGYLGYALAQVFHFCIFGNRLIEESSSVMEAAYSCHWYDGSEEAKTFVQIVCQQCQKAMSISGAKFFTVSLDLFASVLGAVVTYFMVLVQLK
Test: calcium imaging (Fluo-4 AM), HEK […] cells
Type: cell-based

Work on `C=CC(O)CCCCC` (stereo not shown) [1-octen-3-ol] yielded an EC50 of 11.3 µM.
